Entries after “also recorded” stand apart in the source; their conditions may differ. Where a SMILES comes first, the peptide text is derived from it. [ ]: non-standard residue; d: D form. Hyp = O=C(O)[C@@H]1C[C@@H](O)CN1
What was measured:
NIH-3T3 fibroblasts = test: 3D culture cytocompatibility, Calcein AM / Ethidium homodimer-1 viability and cell morphology; format: cell-based
Procedure: (§1) Cytocompatibility and cell viability studies. All cell culture materials, not otherwise specified, were purchased from Gibco, Life Technologies. NIH-3T3 fibroblast cells were cultured in Dulbecco's Modified Eagle Medium (DMEM) supplemented with 10% Fetal Bovine Serum (FBS), 2% L-glutamine (200 mM), 1% sodium pyruvate (100 mM), and 1% pen-strep solution (5000 units/mL of penicillin and 5 mg/mL of streptomycin, Sigma-Aldrich, St. Louis, MO). Cells were maintained at 37° C. and 5% CO2 with humidity and split when reaching 80%-90% confluency by treatment with 0.25% trypsin-EDTA and neutralization with complete media. Cells were centrifuged for 6 min at 1600 rpm, then the cell pellet was dispersed in HBSS, counted and adjusted to the required concentration. 3D cell culture in K2 hydrogel was achieved by mixing a 2% by weight peptide stock solution in 298 mM sucrose with a cell suspension of 2×10^6 cells/mL in HBSS. The final concentration was 1% by weight K2 hydrogel in 149 mM sucrose and 0.5×HBSS with 1×10^6 cells/mL. For O5 peptide, hydrogel was prepared by sonication using only 90% of the required 149 mM sucrose-0.5×HBSS to obtain a 1% by weight concentration, the remaining 10% was added as a cell suspension, and mixed by pipetting into the gel to obtain a final concentration of 1×10^6 cells/mL evenly distributed though the volume of the hydrogel. 70 μL of seeded hydrogels were cultured in a Lab-Tek 16-well glass chamber ([…], Thermo Fisher, Rochester, NY) with 200 μL of medium and fed every 2 days by replacing 100 μL with fresh media. Cell viability was analyzed using a live/dead viability kit (Invitrogen, Thermo Fisher, Carlsbad, CA). At specific time points, the medium was removed, and gels were rinsed with 1×PBS, then 100 μL of staining solution containing 2 μM Calcein AM and 4 μM Ethidium homodimer-1 in DPBS were added. Cells were incubated from 15 to 30 min and imaged using a Nikon A1 Rsi fluorescent confocal microscope (Nikon Instruments, Tokyo, Japan). Three z-stack images of 100 μm deep per sample were taken at 20× using a 488 nm green channel and 561 nm red channel lasers. Images were processed with NIS Element and live/dead cell counting was performed on Imaris 3D/4D Image Processing software (Bitplane, Concord, MA).
(§2) To evaluate the cell morphology, hydrogels were rinsed with PBS and fixed with 10% buffered formalin for 30 min Cells were treated with 0.5% Triton X for 10 min and 100 mM glycine for 10 min, followed by 10% Bovine Serum Albumin (BSA) in HBSS block solution. Then cells were stained for filamentous actin with Alexa Fluor® 488-Phalloidin and for the nuclei with ProLong® Gold Antifade DAPI mounting media. Cell in the hydrogels were analyzed by confocal microscopy using a 40× water objective and processed as described.

[1] = as above; format: cell-based; conditions: mouse; day 1 after encapsulation, 1 wt.% hydrogel; read-out: percentage of viable cells
Procedure: as §1, §2

[2] = Hydrogel formation (inverted-vial test, pH, ionic strength, buffers); format: physicochemical; conditions: for hydrogel formation at acidic, neutral and basic pH: 1% by weight, pH adjusted with HCl or NaOH, inverted-vial test / CD
Procedure: Hydrogel Formation. Peptide solutions of O5 were prepared at 1% by weight (4.2 mM) in 149 mM sucrose and 0.5×HBSS. This buffer system was chosen to be consistent with prior MDP experiments and find optimum gelling conditions for future in vivo and in vitro work. Peptide solutions were sonicated using a Microson Ultrasonic Cell Disruptor with a 2 mm microprobe. The instrument frequency was 22.5 kHz and a power output up to 10 watts (RMS) was used. Solutions were sonicated at room temperature for 1 or 10 cycles, where each cycle consisted of 10 pulses and 1 min relaxation time between cycles. For the study of hydrogelation of O5, K2 and E2 at different pH values and ionic strength, 1% by weight peptide solutions were prepared in deionized water, PBS, or HBSS. pH was adjusted using HCl or NaOH 0.1 M solutions.

[3] = Secondary structure estimation from circular dichroism in TFE, least square linear method; format: physicochemical; conditions: TFE at 25° C., 1 wt.%
Procedure: Circular Dichroism (CD) spectroscopy. For secondary structure characterization, peptide solutions of 1% by weight (molar concentration is included in Table 2) were prepared in 2,2,2-trifluoroethanol (TFE, Sigma Aldrich, St. Louis, MO). CD spectra acquisition was performed in a CD Jasco J-810 spectropolarimeter (Jasco Inc., Easton, MD) using a 0.01 mm cuvette. Data were collected at room temperature from 180 to 250 nm at a speed of 50 nm/min, with a 0.1 nm data pitch and the spectra were averaged over 5 scans. To study the hydrogelation of O5, 1% by weight peptide solutions were made in 149 mM sucrose solution in 0.5× Hank's Balanced Salt Solution (HBSS, Life Technologies) and analyzed as previously described.
To estimate the secondary structure of O peptide series, data fitting using the least square linear method was performed in MATLAB (Mathworks, Natick, MA). (Hyp)6, O1(SL)6O1 and K2(SL)6K2 were used as basis spectra for polyproline type II, β-sheet and α-helix, respectively (FIG. 7).

[4] = Solubility of peptides in water; format: physicochemical

| Compound | % PPII [3] [%] | % α-helix [3] [%] | % β-sheet [3] [%] | Predominant Structure [3] | solubility [4] [µg/mL] | further results |
| --- | --- | --- | --- | --- | --- | --- |
| CC(=O)N[C@@H](CCCCN)C(=O)N[C@@H](CCCCN)C(=O)N[C@@H](CO)C(=O)N[C@@H](CC(C)C)C(=O)N[C@@H](CO)C(=O)N[C@@H](CC(C)C)C(=O)N[C@@H](CO)C(=O)N[C@@H](CC(C)C)C(=O)N[C@@H](CO)C(=O)N[C@@H](CC(C)C)C(=O)N[C@@H](CO)C(=O)N[C@@H](CC(C)C)C(=O)N[C@@H](CO)C(=O)N[C@@H](CC(C)C)C(=O)N[C@@H](CCCCN)C(=O)N[C@@H](CCCCN)C(N)=O [Peptide K2, Ac-KKSLSLSLSLSLSLKK-CONH2, reference compound] |  |  |  |  |  | percentage of viable cells (NIH-3T3 fibroblasts; day 3 compared with day 1): relatively unchanged; cytotoxicity / viability over the culture (NIH-3T3 fibroblasts; days 1 to 5, 1 wt.% hydrogel): somewhat cytotoxic during the first days of cell culture; cell proliferation / viable cell density in the gel (NIH-3T3 fibroblasts; up to day 5): by day 5 cell density is significantly higher than days 1 and 3; viability at 24 h, 1 % by weight [1]: ~20%; hydrogel formation at acidic, neutral and basic pH [2]: dependent on pH; also recorded: forms a gel at pH 11; hydrogel formation at acidic, neutral and basic pH ([2]; listed as K2(SL)6K2): gels only forming at neutral pH or at elevated ionic strength |
| CC(=O)N1C[C@H](O)C[C@H]1C(=O)N[C@@H](CO)C(=O)N[C@@H](CC(C)C)C(=O)N[C@@H](CO)C(=O)N[C@@H](CC(C)C)C(=O)N[C@@H](CO)C(=O)N[C@@H](CC(C)C)C(=O)N[C@@H](CO)C(=O)N[C@@H](CC(C)C)C(=O)N[C@@H](CO)C(=O)N[C@@H](CC(C)C)C(=O)N[C@@H](CO)C(=O)N[C@@H](CC(C)C)C(=O)N1C[C@H](O)C[C@H]1C(N)=O [Peptide O1, Ac-OSLSLSLSLSLSLO-CONH2] (Ac-[Hyp]SLSLSLSLSLSL[Hyp]-NH2) | 0 | 0 | 100 | β-sheet | < 500 |  |
| CC(=O)N1C[C@H](O)C[C@H]1C(=O)N1C[C@H](O)C[C@H]1C(=O)N[C@@H](CO)C(=O)N[C@@H](CC(C)C)C(=O)N[C@@H](CO)C(=O)N[C@@H](CC(C)C)C(=O)N[C@@H](CO)C(=O)N[C@@H](CC(C)C)C(=O)N[C@@H](CO)C(=O)N[C@@H](CC(C)C)C(=O)N[C@@H](CO)C(=O)N[C@@H](CC(C)C)C(=O)N[C@@H](CO)C(=O)N[C@@H](CC(C)C)C(=O)N1C[C@H](O)C[C@H]1C(=O)N1C[C@H](O)C[C@H]1C(N)=O [Peptide O2, Ac-OOSLSLSLSLSLSLOO-CONH2] (Ac-[Hyp][Hyp]SLSLSLSLSLSL[Hyp][Hyp]-NH2) | 29.3 | 41.9 | 28.8 | α-helix | < 500 |  |
| CC(=O)N1C[C@H](O)C[C@H]1C(=O)N1C[C@H](O)C[C@H]1C(=O)N1C[C@H](O)C[C@H]1C(=O)N[C@@H](CO)C(=O)N[C@@H](CC(C)C)C(=O)N[C@@H](CO)C(=O)N[C@@H](CC(C)C)C(=O)N[C@@H](CO)C(=O)N[C@@H](CC(C)C)C(=O)N[C@@H](CO)C(=O)N[C@@H](CC(C)C)C(=O)N[C@@H](CO)C(=O)N[C@@H](CC(C)C)C(=O)N[C@@H](CO)C(=O)N[C@@H](CC(C)C)C(=O)N1C[C@H](O)C[C@H]1C(=O)N1C[C@H](O)C[C@H]1C(=O)N1C[C@H](O)C[C@H]1C(N)=O [Peptide O3, Ac-OOOSLSLSLSLSLSLOOO-CONH2] (Ac-[Hyp][Hyp][Hyp]SLSLSLSLSLSL[Hyp][Hyp][Hyp]-NH2) | 38.4 | 36.4 | 25.2 | PPII/α-helix | < 500 |  |
| CC(=O)N1C[C@H](O)C[C@H]1C(=O)N1C[C@H](O)C[C@H]1C(=O)N1C[C@H](O)C[C@H]1C(=O)N1C[C@H](O)C[C@H]1C(=O)N[C@@H](CO)C(=O)N[C@@H](CC(C)C)C(=O)N[C@@H](CO)C(=O)N[C@@H](CC(C)C)C(=O)N[C@@H](CO)C(=O)N[C@@H](CC(C)C)C(=O)N[C@@H](CO)C(=O)N[C@@H](CC(C)C)C(=O)N[C@@H](CO)C(=O)N[C@@H](CC(C)C)C(=O)N[C@@H](CO)C(=O)N[C@@H](CC(C)C)C(=O)N1C[C@H](O)C[C@H]1C(=O)N1C[C@H](O)C[C@H]1C(=O)N1C[C@H](O)C[C@H]1C(=O)N1C[C@H](O)C[C@H]1C(N)=O [Peptide O4, Ac-OOOOSLSLSLSLSLSLOOOO-CONH2] (Ac-[Hyp][Hyp][Hyp][Hyp]SLSLSLSLSLSL[Hyp][Hyp][Hyp][Hyp]-NH2) | 41.8 | 41.2 | 17 | PPII/α-helix | < 500 |  |
| CC(=O)N1C[C@H](O)C[C@H]1C(=O)N1C[C@H](O)C[C@H]1C(=O)N1C[C@H](O)C[C@H]1C(=O)N1C[C@H](O)C[C@H]1C(=O)N1C[C@H](O)C[C@H]1C(=O)N1C[C@H](O)C[C@H]1C(=O)N[C@@H](CO)C(=O)N[C@@H](CC(C)C)C(=O)N[C@@H](CO)C(=O)N[C@@H](CC(C)C)C(=O)N[C@@H](CO)C(=O)N[C@@H](CC(C)C)C(=O)N[C@@H](CO)C(=O)N[C@@H](CC(C)C)C(=O)N[C@@H](CO)C(=O)N[C@@H](CC(C)C)C(=O)N[C@@H](CO)C(=O)N[C@@H](CC(C)C)C(=O)N1C[C@H](O)C[C@H]1C(=O)N1C[C@H](O)C[C@H]1C(=O)N1C[C@H](O)C[C@H]1C(=O)N1C[C@H](O)C[C@H]1C(=O)N1C[C@H](O)C[C@H]1C(=O)N1C[C@H](O)C[C@H]1C(N)=O [Peptide O6, Ac-OOOOOOSLSLSLSLSLSLOOOOOO-CONH2] (Ac-[Hyp][Hyp][Hyp][Hyp][Hyp][Hyp]SLSLSLSLSLSL[Hyp][Hyp][Hyp][Hyp][Hyp][Hyp]-NH2) | 48.5 | 40.2 | 11.4 | PPII |  | state of the peptide at 10 mg/mL ([2]; 10 mg/mL): viscous solution; hydrogelation in cell culture media ([2]; 1% by weight in 149 mM sucrose and 0.5×HBSS, ultrasonication): dissolves to form a viscous solution |
| Ac-EESLSLSLSLSLSLEE-NH2 [Peptide E2, Ac-EESLSLSLSLSLSLEE-CONH2, reference compound] |  |  |  |  |  | hydrogel formation at acidic, neutral and basic pH [2]: dependent on pH; also recorded: forms a gel at acidic pH and undergoes phase separation; hydrogel formation at acidic, neutral and basic pH ([2]; listed as E2(SL)6E2): gels only forming at neutral pH or at elevated ionic strength |

From patent US12383653B2, “Neutral multidomain peptide hydrogels and uses thereof” (William Marsh Rice University, priority 2018, dated 2025)
